Molecular target: T1, wild type hA1AR (Homo sapiens, UniProt P30542)
T1 sequence (P30542 1-326): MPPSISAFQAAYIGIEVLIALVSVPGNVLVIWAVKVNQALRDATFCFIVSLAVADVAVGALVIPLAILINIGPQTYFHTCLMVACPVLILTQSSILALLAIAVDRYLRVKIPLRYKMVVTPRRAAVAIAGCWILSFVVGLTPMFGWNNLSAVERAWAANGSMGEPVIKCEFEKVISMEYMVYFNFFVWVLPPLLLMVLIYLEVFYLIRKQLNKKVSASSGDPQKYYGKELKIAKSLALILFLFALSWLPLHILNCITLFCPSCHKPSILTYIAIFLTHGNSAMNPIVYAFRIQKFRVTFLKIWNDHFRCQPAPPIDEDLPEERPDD
Assay: [3H]DPCPX radioligand displacement assay, CHO membranes
Type: binding
Conditions: fraction of high-affinity state; two-site model
Method: Transient transfection of CHO cells with wild type or mutated hA1AR plasmid constructs was performed using a polyethylenimine (PEI) method. Cells were seeded in 10-cm culture dishes to achieve 50–60% confluency 24 h prior to transfection. On the day of transfection, cells were transfected with a PEI: DNA ratio of 3:1 and a plasmid DNA amount of 10 μg/dish. Moreover, 24 h post-transfection, the medium was refreshed, and 48 h after transfection, cells were collected and membranes were prepared as previously described. Membranes were aliquoted in 250 or 100 μL and stored at −80 °C. Membrane protein concentrations were determined using the BCA method.
The displacement assays were performed as described previously. […] After the addition of 25 µL per well of the Microscint scintillation cocktail (PerkinElmer, Groningen, The Netherlands), the filter-bound radioactivity was measured by scintillation spectrometry in a Microbeta2® 2450 microplate counter (PerkinElmer).
All experimental data were analyzed by GraphPad Prism 7.0 or 8.0 (GraphPad Software Inc., San Diego, CA, USA). Data from yeast liquid growth and [^35S]GTPγS binding assays were analyzed by non-linear regression using “log (agonist) vs. response (three parameters)” or “log (inhibitor) vs. response (three parameters)” to obtain potency (EC50), inhibitory potency (IC50), and efficacy (Emax or Imax) values. […]

## OC[C@H]1O[C@@H](n2cnc3c(NC4CCCC4)ncnc32)[C@H](O)[C@@H]1O [CPA, N^6-cyclopentyladenosine]
  Fraction (High): 0.15 ± 0.03

Source: publication PMC9229843, “Cancer-Related Somatic Mutations in Transmembrane Helices Alter Adenosine A1 Receptor Pharmacology” (Molecules, 2022)
